Target: E3 ubiquitin-protein ligase Mdm2 (Homo sapiens, UniProt Q00987)
Experiment: Inhibition of GST-tagged MDM2 binding to p53 by ELISA

Sequence of E3 ubiquitin-protein ligase Mdm2 (Q00987 whole entry): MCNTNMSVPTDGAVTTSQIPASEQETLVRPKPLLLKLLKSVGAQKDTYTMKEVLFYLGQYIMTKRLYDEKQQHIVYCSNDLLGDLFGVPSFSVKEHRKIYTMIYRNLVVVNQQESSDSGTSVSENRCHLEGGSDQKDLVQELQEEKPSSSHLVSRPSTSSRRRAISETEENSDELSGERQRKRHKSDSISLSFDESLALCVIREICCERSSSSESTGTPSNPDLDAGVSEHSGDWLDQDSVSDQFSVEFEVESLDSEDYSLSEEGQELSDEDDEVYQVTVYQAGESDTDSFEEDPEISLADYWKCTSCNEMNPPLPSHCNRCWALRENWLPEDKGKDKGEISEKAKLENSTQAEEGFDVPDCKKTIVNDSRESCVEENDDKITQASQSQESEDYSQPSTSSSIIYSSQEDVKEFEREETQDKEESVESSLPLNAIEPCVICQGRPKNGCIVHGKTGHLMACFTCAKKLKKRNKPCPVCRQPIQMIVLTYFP

SMILES | IC50
COCC1=C(C(=O)N2CCNC(=O)C2)SC2=N[C@@H](c3ccc(Cl)cc3)[C@@H](c3ccc(Cl)cc3)N21 (racemic) | 7.1 µM
CC1=C(C(=O)N2CCNC(=O)C2)SC2=N[C@@H](c3ccc(Cl)cc3)[C@@H](c3ccc(Cl)cc3)N21 (racemic) | 2.7 µM
CCC1=C(C(=O)N2CCNC(=O)C2)SC2=N[C@@H](c3ccc(Cl)cc3)[C@@H](c3ccc(Cl)cc3)N21 (racemic) | 1.8 µM
CC(C)C1=C(C(=O)N2CCNC(=O)C2)SC2=N[C@@H](c3ccc(Cl)cc3)[C@@H](c3ccc(Cl)cc3)N21 (racemic) | 0.26 µM
CCCC1=C(C(=O)N2CCNC(=O)C2)SC2=N[C@@H](c3ccc(Cl)cc3)[C@@H](c3ccc(Cl)cc3)N21 (racemic) | 3.1 µM
O=C1CN(C(=O)C2=C(C3CC3)N3C(=N[C@@H](c4ccc(Cl)cc4)[C@H]3c3ccc(Cl)cc3)S2)CCN1 (racemic) | 9.5 µM
CC(C)(C)C1=C(C(=O)N2CCNC(=O)C2)SC2=N[C@@H](c3ccc(Cl)cc3)[C@@H](c3ccc(Cl)cc3)N21 (racemic) | 3 µM
CC(=O)N1CCN(C(=O)C2=C(C(C)C)N3C(=N[C@@H](c4ccc(Cl)cc4)[C@H]3c3ccc(Cl)cc3)S2)CC1 (racemic) | 0.84 µM
CC(C)C1=C(C(=O)N2CCC(C(=O)N(C)C)CC2)SC2=N[C@@H](c3ccc(Cl)cc3)[C@@H](c3ccc(Cl)cc3)N21 (racemic) | 4.4 µM
CC(C)C1=C(C(=O)N2CCOCC2)SC2=N[C@@H](c3ccc(Cl)cc3)[C@@H](c3ccc(Cl)cc3)N21 (racemic) | 0.34 µM
CC(C)C1=C(C(=O)N2CCNC(=O)CC2)SC2=N[C@@H](c3ccc(Cl)cc3)[C@@H](c3ccc(Cl)cc3)N21 (racemic) | 1.1 µM
CC(C)C1=C(C(=O)N2CCN(CCO)CC2)SC2=N[C@@H](c3ccc(Cl)cc3)[C@@H](c3ccc(Cl)cc3)N21 (racemic) | 1.8 µM
CC(C)C1=C(C(=O)N2CCN(C)CC2)SC2=N[C@@H](c3ccc(Cl)cc3)[C@@H](c3ccc(Cl)cc3)N21 (racemic) | 1.2 µM
CC(C)C1=C(C(=O)N2C[C@@H](C)N[C@@H](C)C2)SC2=N[C@@H](c3ccc(Cl)cc3)[C@@H](c3ccc(Cl)cc3)N21 (racemic) | 0.14 µM
CC(C)C1=C(C(=O)N2CCNC(=O)C2)SC2=NC(c3ccc(Cl)cc3)C(c3ccc(Cl)cc3)N21 (single isomer, unassigned; (+)) | 0.16 µM
CC(C)C1=C(C(=O)N2CCNC(=O)C2)SC2=NC(c3ccc(Cl)cc3)C(c3ccc(Cl)cc3)N21 (single isomer, unassigned; (-)) | 11.9 µM
